Measured values from patent publication US20220395464A1, “ORALLY ADMINISTERED SOLID DOSAGE FORM DRUG” (ASCENTAWITS PHARMACEUTICALS, LTD., priority 2019, published 2022).
Where “and” joins values, the source holds several entries; their conditions need not be identical. Identical values can stand only once.

Key:
[1] = Stability in hepatomicrosome with NADPH (LC-MS/MS); assay type: in vitro ADME, human; settings: for % Remaining: human hepatomicrosome 0.5 mg/ml, NADPH 2 mM, 37° C., Sample 1, Sample 2
Experimental: The compounds, hepatomicrosome and reduced coenzyme NADPH were mixed together. Besides, a final concentration of the hepatomicrosome was 0.5 mg/ml, and human, male and mixed types of the hepatomicrosome were purchased. A final concentration of the NADPH was 2 mM. Next, the preceding mixtures were incubated in buffer (100 mM KH2PO4—K2HPO4) at 37° C. for 0, 5, 15, 30, 45, and 60 minutes, respectively. At the appointed incubation time, the reaction was terminated by the addition of an internal standard solution. Finally, the samples were centrifuged and the supernatant was taken for detection by LC-MS/MS.
Through mass spectrometry analysis, a concentration of the compounds in each sample was expressed by a peak-area ratio (a ratio of the peak-area of the compound to a peak-area of the internal standard). Then, each remaining percentage of the compounds (% Remaining) at each appointed incubation time was calculated with a reference that 0 minute at each concentration of the compounds. In logarithm of the remaining percentage was fitted linearly with the appointed incubation times, and a half-life and an intrinsic clearance were calculated according to the following formulas.
The remaining percentage (% Remaining)=(a peak area ratio at a certain appointed time (PARappointed time)/a peak area ratio at 0 minute (PAR0-mm)×100 (PAR: peak area ratio)
The elimination rate constant (k)=a negative of a slope (-gradient)
In vitro clearance (CLint, in vitro) (ml/min/mg)=k/c (c: a concentration of hepatomicrosome in the incubation system)

[2] = Pharmacokinetics after single intravenous drip infusion, plasma LC-MS/MS; assay type: in vivo, Philippine macaques; settings: individual animals 101, 102, 103; for Plasma-drug concentration: AST-3424-D6 intravenous drip infusion 0.42 mg/kg
Experimental: AST-3424 and AST-3424-D6 (i.e. the compound of formula I) were administered to Philippine macaques by intravenous drip infusion, and blood samples were collected at different appointed times. LC-MS/MS was used to determine concentrations of the test substances in plasma of the Philippine macaques after administration, and relevant pharmacokinetic parameters were calculated.
Preparation method: 0.447 ml of AST-3424 (0.2 mg/ml) and 0.481 ml of AST-3424-D6 (0.2 mg/ml) were added into 104.272 ml of the dissolvent, respectively, and mixed for 5 minutes to obtain colorless and clarified solutions with pH 7.0.
The four male Philippine macaques were purchased from Guangxi Xiongsen Primate Development Experiment Co., Ltd. All Philippine macaques were healthy with qualified medical examination and no abnormality. Three of animals were used for the experiment, and one of them was used to prepare blank plasma.
About 0.8 ml of blood samples were collected through femoral vein and anticoagulated with heparin sodium. Appointed times of blood collection were before administration, 0.17, 0.25, 0.5, 0.75, 1, 2, and 4 hours after administration.
The blood samples were placed on ice after collection. Next, plasma samples were separated by centrifugation, and centrifugation conditions were 3500 rpm for 10 minutes at 4° C. Then, the collected plasma samples were stored at −80° C. until analysis. The plasma samples were analyzed by LC-MS/MS by an analysis department of an experimental institution. Besides, Lower limit of quantifications (LLOQ) of AST-3424 and AST-3424-D6 detection were 1 ng/ml. The accuracy of analysis results of an accompanying standard curve and a quality control samples all met the relevant requirements of biological analysis (the accuracy of the quality control samples exceeding 66.7% was between 85˜115%) in a process of the sample detection.
According to average blood concentration data of each group at each appointed time, the pharmacokinetic parameters of the compounds were respectively computed by a pharmacokinetic computing software, a non-compartmental model. In addition, the pharmacokinetic parameters were AUC0-t, AUC0-∞, MRT0-∞, Cmax, Tmax, t1/2, etc. In the case of the concentrations of the samples whose concentration being lower than a lower limit of quantification, the following schemes were used to compute the pharmacokinetic parameters. The samples sampled before reaching Cmax shall be computed as zero value, while the samples sampled after reaching Cmax shall be computed as non-quantifiable (marked as “BLQ”).
After a single intravenous infusion of the compounds AST-3424 and AST-3424-D6 was administered to the Philippine macaques, the whole blood samples of the corresponding animals were collected at the appointed times. Next, the whole blood samples were processed and biologically analyzed to obtain concentrations of the compounds in the plasma at the different appointed times. Results of the assay were listed in Table 14 below, and corresponding means of the plasma-drug concentration-time curves are shown in FIG. 3.
According to the plasma-drug concentration data of each drug group, the pharmacokinetic parameters of each compound group were computed using the non-compartmental model of the pharmacokinetic computing software. The pharmacokinetic

[3] = AST-3424-D6 single intravenous infusion, Table 15 heading 0.58 mg/kg (text: 0.42 mg/kg), plasma

Stability parameter k (elimination rate constant) ([1]; human hepatomicrosome): 0.0349 min⁻¹ | % Remaining ([1]; 0 minutes): 101.60% and 98.40% | % Remaining ([1]; 5 minutes): 85.07% and 87.20% | % Remaining ([1]; 15 minutes): 62.93% and 60.00% | % Remaining ([1]; 30 minutes): 36.80% and 34.93% | % Remaining ([1]; 45 minutes): 21.17% and 21.07% | % Remaining ([1]; 60 minutes): 13.52% and 12.75% | % Remaining, Average ([1]; human hepatomicrosome, 0 minutes): 100.00% | % Remaining, Average ([1]; human hepatomicrosome, 5 minutes): 86.13% | % Remaining, Average ([1]; human hepatomicrosome, 15 minutes): 63.47% | % Remaining, Average ([1]; human hepatomicrosome, 30 minutes): 35.87% | % Remaining, Average ([1]; human hepatomicrosome, 45 minutes): 21.12% | % Remaining, Average ([1]; human hepatomicrosome, 60 minutes): 13.13% | half-life ([1]; male, liver microsomes (hepatomicrosome), human hepatomicrosome, read-out: Stability parameter (t1/2)): 19.9 min
SMILES: [2H]C([2H])([2H])N(C(=O)c1cccc(Oc2cc([C@H](C)OP(=O)(N3CC3)N3CC3)ccc2[N+](=O)[O-])c1)C([2H])([2H])[2H] [AST-3424-D6]
Hepatomicrosome stability compared with AST-3424, in words ([1]; human hepatomicrosome, FIG. 2 and Table 13): more stable | Remaining percentage higher than that of AST-3424 ([1]; human hepatomicrosome, at the same time period): at least 10% | Plasma-drug concentration ([2]; 0.17 hr): 573.76 ng/mL and 478.95 ng/mL | Plasma-drug concentration ([2]; 0.25 hr): 528.54 ng/mL and 508.71 ng/mL | Plasma-drug concentration ([2]; 0.5 hr): 533.71 ng/mL and 487.88 ng/mL | Plasma-drug concentration ([2]; 0.75 hr): 122.04 ng/mL and 91.24 ng/mL | Plasma-drug concentration ([2]; 1 hr): 36.24 ng/mL and 24.30 ng/mL | Plasma-drug concentration ([2]; 2 hr, LLOQ 1 ng/ml): BLQ | Plasma-drug concentration ([2]; 4 hr, LLOQ 1 ng/ml): BLQ | AUC(0−t) [2, 3]: 327.39 ng·h/mL and 291.62 ng·h/mL | AUC(0−∞) [2, 3]: 295.67 ng·h/mL | Cl [2, 3]: 23.6747 mL/min/kg | Cmax [2, 3]: 573.76 ng/mL and 508.71 ng/mL | T1/2 [2, 3]: 7.2 min | Tmax [2, 3]: 30 min and 10.2 min and 15 min | Vss [2, 3]: 0.20706 L/kg
